Measurements: PubChem BioAssay AID248 (DTP/NCI, 2004)
“And” between values parts separate entries of the source, which are not always exact repeats. Identical values can stand only once. Inconclusive results and toxic doses are left out. No stated cut-off is given here; in the data, active means T/C of 150% or more; inactive means T/C below 125%.

System: L1210 leukemia ip in BDF1 mice, survival T/C
Assay: NCI In Vivo Anticancer Drug Screen. Data for tumor model L1210 Leukemia (intraperitoneal) in B6D2F1 (BDF1) mice
Settings: endpoint: mean survival time, higher = longer survival
Summary of the method: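 Survival endpoint. Drug-treated group vs vehicle group, expressed as T divided by C. Tumor passaged by transplantation.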

[1] = dose: 100.0 mg/kg/injection, schedule: Q01DX001 (ip), vehicle: Klucel (hydroxypropylcellulose) (HPC)
[2] = dose: 100.0 mg/kg/injection, schedule: Q04DX003 (ip), vehicle: Klucel (hydroxypropylcellulose) (HPC)
[3] = dose: 200.0 mg/kg/injection, schedule: Q01DX001 (ip), vehicle: Klucel (hydroxypropylcellulose) (HPC)
[4] = dose: 200.0 mg/kg/injection, schedule: Q04DX003 (ip), vehicle: Klucel (hydroxypropylcellulose) (HPC)
[5] = dose: 400.0 mg/kg/injection, schedule: Q01DX001 (ip), vehicle: Klucel (hydroxypropylcellulose) (HPC)
[6] = dose: 400.0 mg/kg/injection, schedule: Q04DX003 (ip), vehicle: Klucel (hydroxypropylcellulose) (HPC)
[7] = dose: 50.0 mg/kg/injection, schedule: Q01DX001 (ip), vehicle: saline
[8] = dose: 100.0 mg/kg/injection, schedule: Q01DX001 (ip), vehicle: saline
[9] = dose: 200.0 mg/kg/injection, schedule: Q01DX001 (ip), vehicle: saline
[10] = dose: 300.0 mg/kg/injection, schedule: Q01DX001 (ip), vehicle: saline
[11] = dose: 50.0 mg/kg/injection, schedule: Q01DX009 (ip), vehicle: Klucel (hydroxypropylcellulose) (HPC)
[12] = dose: 100.0 mg/kg/injection, schedule: Q01DX009 (ip), vehicle: Klucel (hydroxypropylcellulose) (HPC)
[13] = dose: 200.0 mg/kg/injection, schedule: Q01DX009 (ip), vehicle: Klucel (hydroxypropylcellulose) (HPC)
[14] = dose: 50.0 mg/kg/injection, schedule: Q01DX009 (ip), vehicle: saline
[15] = dose: 100.0 mg/kg/injection, schedule: Q01DX009 (ip), vehicle: saline
[16] = dose: 200.0 mg/kg/injection, schedule: Q01DX009 (ip), vehicle: saline
[17] = dose: 25.0 mg/kg/injection, schedule: Q01DX001 (ip), vehicle: saline
[18] = dose: 400.0 mg/kg/injection, schedule: Q01DX009 (ip), vehicle: Klucel (hydroxypropylcellulose) (HPC)
[19] = dose: 6.25 mg/kg/injection, schedule: Q01DX009 (ip), vehicle: saline
[20] = dose: 12.5 mg/kg/injection, schedule: Q01DX009 (ip), vehicle: saline
[21] = dose: 25.0 mg/kg/injection, schedule: Q01DX009 (ip), vehicle: saline

Measured: T/C

CC1(C)N=C(N)N=C(N)N1c1ccc(OCCOc2ccc(NC(=O)CBr)cc2)cc1
inactive: dose: 120.0 mg/kg/injection, schedule: Q01DX009 (ip), vehicle: saline 124 % of control | dose: 176.0 mg/kg/injection, schedule: Q01DX009 (ip), vehicle: saline 112 % of control | dose: 266.0 mg/kg/injection, schedule: Q01DX009 (ip), vehicle: saline 107 % of control | dose: 400.0 mg/kg/injection, schedule: Q01DX009 (ip), vehicle: saline 98 % of control

COc1ccc(C2=NCCO2)cc1N
inactive: [1] 114 % of control | [2] 96 % of control | [3] 104 % of control | [4] 98 % of control | [5] 104 % of control | [6] 91 % of control

CC(C)Cc1nc2c([nH]1)c(=O)n(C)c(=O)n2C
inactive: [7] 96 % of control | [8] 104 % of control | [9] 98 % of control

O=C1NC2(CCC(O)CC2)C(O)(c2ccccc2)C12CCCCC2 (configuration not stated)
inactive: dose: 75.0 mg/kg/injection, schedule: Q01DX001 (ip), vehicle: saline 105 % of control | dose: 150.0 mg/kg/injection, schedule: Q01DX001 (ip), vehicle: saline 86 % of control | [10] 86 % of control

O=Cc1ccccc1B(O)O
inactive: [11] 96 % of control and 101 % of control | [12] 97 % of control and 100 % of control | [2] 98 % of control | [13] 105 % of control and 124 % of control | [4] 86 % of control

CCCOc1ccc(C2=NCC(C)S2)c(C)c1 (configuration not stated)
inactive: dose: 12.5 mg/kg/injection, schedule: Q01DX009 (ip), vehicle: Klucel (hydroxypropylcellulose) (HPC) 94 % of control | dose: 25.0 mg/kg/injection, schedule: Q01DX009 (ip), vehicle: Klucel (hydroxypropylcellulose) (HPC) 91 % of control | [11] 98 % of control and 90 % of control | dose: 100.0 mg/kg/injection, schedule: Q01DX005 (ip), vehicle: Klucel (hydroxypropylcellulose) (HPC) 101 % of control | dose: 200.0 mg/kg/injection, schedule: Q01DX005 (ip), vehicle: Klucel (hydroxypropylcellulose) (HPC) 89 % of control

CCOC(=O)C(C(=O)O)C(=O)CCO (configuration not stated)
inactive: [8] 98 % of control | [9] 94 % of control

CCCCCCCCC(CCc1ccccc1)CCc1ccccc1
inactive: dose: 100.0 mg/kg/injection, schedule: Q01DX001 (ip), vehicle: saline with Tween-80 93 % of control | dose: 200.0 mg/kg/injection, schedule: Q01DX001 (ip), vehicle: saline with Tween-80 93 % of control | dose: 400.0 mg/kg/injection, schedule: Q01DX001 (ip), vehicle: saline with Tween-80 96 % of control

O=C1C=CC(=O)N1c1cccc(N2C(=O)C=CC2=O)c1
inactive: dose: 8.0 mg/kg/injection, schedule: Q04DX003 (ip), vehicle: saline 102 % of control | dose: 16.0 mg/kg/injection, schedule: Q04DX003 (ip), vehicle: saline 95 % of control

CCC[CH2][Sn]([CH2]CCC)([CH2]CCC)[CH2]CC(N)=O
inactive: [14] 96 % of control and 106 % of control | [15] 96 % of control and 106 % of control | [16] 101 % of control

[C-]#[N+]C([N+]#[C-])=S(C)C
inactive: [14] 102 % of control | [15] 109 % of control | dose: 100.0 mg/kg/injection, schedule: Q04DX003 (ip), vehicle: saline 103 % of control | [16] 105 % of control | dose: 200.0 mg/kg/injection, schedule: Q04DX003 (ip), vehicle: saline 101 % of control

O=C(O)CCCCCC(=O)c1ccccc1
inactive: dose: 100.0 mg/kg/injection, schedule: Q04DX002 (ip), vehicle: Klucel (hydroxypropylcellulose) (HPC) 100 % of control | dose: 200.0 mg/kg/injection, schedule: Q04DX002 (ip), vehicle: Klucel (hydroxypropylcellulose) (HPC) 118 % of control | dose: 400.0 mg/kg/injection, schedule: Q04DX002 (ip), vehicle: Klucel (hydroxypropylcellulose) (HPC) 107 % of control

CCCCCCCCCC(=O)N1CCCN(C(=O)CCCCCCCCC)C1
inactive: dose: 30.0 mg/kg/injection, schedule: Q01DX001 (ip), vehicle: saline 102 % of control | [8] 98 % of control | [10] 93 % of control

CSc1nc(N)cc(NC(=O)CCl)n1
inactive: [11] 101 % of control | [12] 102 % of control | [2] 92 % of control | [4] 92 % of control

Oc1ccccc1C=NCCCN1CCOCC1.Oc1ccccc1C=NCCCN1CCOCC1.[Co]
inactive: dose: 12.5 mg/kg/injection, schedule: Q01DX001 (ip), vehicle: saline 98 % of control | [17] 100 % of control | [7] 98 % of control

C=C(NC(C)=O)C(O)c1ccc([N+](=O)[O-])cc1 (configuration not stated)
inactive: dose: 50.0 mg/kg/injection, schedule: Q01DX001 (ip), vehicle: carboxymethylcellulose (CMC) 96 % of control | dose: 100.0 mg/kg/injection, schedule: Q01DX001 (ip), vehicle: carboxymethylcellulose (CMC) 100 % of control and 90 % of control | [12] 95 % of control | [2] 101 % of control | dose: 200.0 mg/kg/injection, schedule: Q01DX001 (ip), vehicle: carboxymethylcellulose (CMC) 94 % of control and 97 % of control | [13] 93 % of control | [4] 98 % of control | dose: 400.0 mg/kg/injection, schedule: Q01DX001 (ip), vehicle: carboxymethylcellulose (CMC) 100 % of control and 87 % of control | [18] 95 % of control | [6] 95 % of control

NC(N)=N/N=C/c1cccs1
inactive: dose: 15.0 mg/kg/injection, schedule: Q01DX Z (oral), vehicle: saline 90 % of control | dose: 30.0 mg/kg/injection, schedule: Q01DX Z (ip), vehicle: saline 90 % of control | dose: 30.0 mg/kg/injection, schedule: Q01DX Z (oral), vehicle: saline 92 % of control | dose: 60.0 mg/kg/injection, schedule: Q01DX Z (oral), vehicle: saline 92 % of control

COc1ccc(OC(=O)Nc2ccc(OC)cc2OC)cc1
inactive: [12] 97 % of control | [13] 104 % of control | [18] 96 % of control

CSCCNC(=O)CS(=O)(=O)c1ccc(N)cc1
inactive: dose: 100.0 mg/kg/injection, schedule: Q04DX003 (ip), vehicle: saline with Tween-80 97 % of control | dose: 200.0 mg/kg/injection, schedule: Q04DX003 (ip), vehicle: saline with Tween-80 97 % of control | dose: 400.0 mg/kg/injection, schedule: Q04DX003 (ip), vehicle: saline with Tween-80 97 % of control

N#CC=P(c1ccccc1)(c1ccccc1)c1ccccc1
inactive: [14] 87 % of control

Nc1cc(I)c2cccnc2c1O
inactive: [19] 101 % of control | dose: 10.0 mg/kg/injection, schedule: Q01DX015 (ip), vehicle: saline 95 % of control | [20] 96 % of control | dose: 20.0 mg/kg/injection, schedule: Q01DX015 (ip), vehicle: saline 87 % of control | [21] 102 % of control | [14] 98 % of control

O=C(Nc1ccc(S(=O)(=O)F)c(Cl)c1)Oc1ccccc1
inactive: [8] 96 % of control | [9] 96 % of control | dose: 400.0 mg/kg/injection, schedule: Q01DX001 (ip), vehicle: saline 96 % of control

CC1(C)CCCC2(C)C3CCC(C31)C2OC(=O)c1ccc([N+](=O)[O-])cc1 (configuration not stated)
inactive: [1] 101 % of control | [3] 98 % of control | [5] 93 % of control

O=C(O)c1c(Br)c(Br)c(Br)c(Br)c1C(=O)Nc1cccc2ccccc12
inactive: dose: 100.0 mg/kg/injection, schedule: Q04DX002 (ip), vehicle: saline with Tween-80 97 % of control | dose: 200.0 mg/kg/injection, schedule: Q04DX002 (ip), vehicle: saline with Tween-80 97 % of control | dose: 400.0 mg/kg/injection, schedule: Q04DX002 (ip), vehicle: saline with Tween-80 94 % of control

CS/C(N)=N\N=C/c1ccccc1
inactive: [19] 102 % of control | [20] 102 % of control | [17] 117 % of control | [21] 102 % of control | dose: 25.0 mg/kg/injection, schedule: Q04DX003 (ip), vehicle: saline 97 % of control | [7] 97 % of control | [8] 102 % of control and 105 % of control
